Test results taken from US20240025906A1 (NEURON23, INC., priority 2022, published 2024).
Read-outs that look alike come from different tables or passages of the source.

Tests used:
[1] = system: JAK1/TYK2 pSTAT5 (Tyr694/699) in THP-1 cell line; experiment: IFNa-stimulated JAK1/TYK2 pSTAT5 (Tyr694/699) inhibition cellular assay, AlphaLISA; assay type: cell-based; conditions: Homo sapiens, THP-1 cells, AlphaLISA (Assay B)
Protocol: Assay B: JAK1/TYK2 pSTAT5 (Tyr694/699) inhibition IC50 Cellular Assays
To evaluate the inhibition effect of compounds disclosed herein against TYK2, an IFNa-stimulated JAE1/TYK2 pSTAT5 (Tyr694/699) quantification assay was conducted in the THP-1 cell line using an AlphaLISA detection method (PerkinElmer ALSU-PST5). Compounds in DMSO were serially diluted in a 96-well plate (10 mM starting concentration, 6-fold dilutions, 8 concentrations total) prior to dispensing of 8 nL into a 384-well plate using an I.DOT non-contact liquid handler (Dispendix). Cells were collected via centrifugation at 300 ref for 5 min and resuspended in Hanks' Balanced Salt Solution (Gibco 14175-079), and 6 μl containing 2e4 cells was dispensed into each well of the 384-well plate containing test compounds or DMSO alone (final concentrations: 10000, 1666.67, 277.78, 46.30, 7.72, 1.29, 0.21 and 0.04 nM). Cells were then incubated for 1 h at 37° C. with 5% CO2 prior to the addition of 2 μL IFNa (100 ng/mL; PBL Assay Science 11175-1). Following an additional 30 min incubation at 37° C. with 5% CO2, 2 μL of 5× lysis buffer was added to each well using the I.DOT […]. Plates were sealed and incubated at RT for 10 min on a plate shaker set to 400 RPM. Cell lysates were then frozen at −80° C. before subsequent detection of pSTAT5 by AlphaLISA. At the time of the detection assay, cell lysates were thawed for 5 min at room temperature and then on a plate shaker set to 400 RPM for an additional 10 min. Following the manufacturer recommended protocol (Perkin Elmer), 5 μL of acceptor bead master mix was added to each well; plates were then resealed and incubated for 2 min at RT on a plate shaker (400 rpm) prior to an additional 2-h incubation without agitation (protected from light). Donor bead master mix, 5 uL per well, was then added to each well before 2 min of shaking (RT, 400 rpm) and 2-h incubation (RT, no shaking, protected from light). Levels of pSTAT5 protein were then measured as fluorescent signal at 615 nm with an EnVision multimode plate reader (Perkin Elmer). IC50 values were calculated in Dotmatics using the four-parameter logistic curve regression model with bottom fixed to 0 and Hill Slope fixed to −1.

TYK2 JH2 = biological target: T1, TYK2 JH2 (Homo sapiens, UniProt P29597); experiment: TYK2 JH2 binding assay (KINOMEscan KdELECT competitive binding); conditions: TYK2 JH2 domain
T1 construct: purchased DiscoverX (KINOMEscan KdELECT service); host or cells: E. coli BL21-derived (T7 phage display) or HEK-293
Protocol: Assay A: TYK2 JH2 Binding Assay
Competitive binding studies using TKY2 JH2-domain fragments were conducted by DiscoverX using the KINOMEscan (KdELECT) platform. Kinase-tagged T7 phage strains were prepared in an E. coli host derived from the BL21 strain. E. coli were grown to log-phase and infected with […] and incubated with shaking at 32° C. until lysis. The lysates were centrifuged and filtered to remove cell debris. The remaining kinases were produced in HEK-293 cells and subsequently tagged with DNA for qPCR detection. Streptavidin-coated magnetic beads were treated with biotinylated small molecule ligands for 30 minutes at room temperature to generate affinity resins for kinase assays. The liganded beads were blocked with excess biotin and washed with blocking buffer (SeaBlock (Pierce), 1% BSA, 0.05% Tween 20, 1 mM DTT) to remove unbound ligand and to reduce non-specific binding. Binding reactions were assembled by combining kinases, liganded affinity beads, and test compounds in 1× binding buffer (20% SeaBlock, 0.17×PBS, 0.05% Tween 20, 6 mM DTT). Test compounds were prepared as 111× stocks in 100% DMSO. Kds were determined using an 11-point 3-fold compound dilution series with three DMSO control points. All compounds for Kd measurements are distributed by acoustic transfer (non-contact dispensing) in 100% DMSO. The compounds were then diluted directly into the assays such that the final concentration of DMSO was 0.9%. All reactions performed in polypropylene 384-well plate. Each was a final volume of 0.02 ml. The assay plates were incubated at room temperature with shaking for 1 hour and the affinity beads were washed with wash buffer (1×PBS, 0.05% Tween 20). The beads were then re-suspended in elution buffer (1×PBS, 0.05% Tween 20, 0.5 μM non-biotinylated affinity ligand) and incubated at room temperature with shaking for 30 minutes. The kinase concentration in the eluates was measured by qPCR.

[2] = IFNa-stimulated, read-out: Cellular_THP1_IFNa-pSTATS_TYK2
[3] = KINOMEscan KdELECT (Assay A), read-out: Biochemical TYK2_DiscoverX_JH2_BND_Kd
[4] = DiscoverX KINOMEscan KdELECT (Assay A), read-out: Biochemical TYK2_DiscoverX_JH2_BND_Kd
[5] = IFNa-stimulated, read-out: Cellular THP1_IFNa-pSTATS_IC50
[6] = KINOMEscan KdELECT (Assay A), read-out: Biochemical TYK2_JH2_Kd

T1 sequence (P29597 589-875 limits assumed): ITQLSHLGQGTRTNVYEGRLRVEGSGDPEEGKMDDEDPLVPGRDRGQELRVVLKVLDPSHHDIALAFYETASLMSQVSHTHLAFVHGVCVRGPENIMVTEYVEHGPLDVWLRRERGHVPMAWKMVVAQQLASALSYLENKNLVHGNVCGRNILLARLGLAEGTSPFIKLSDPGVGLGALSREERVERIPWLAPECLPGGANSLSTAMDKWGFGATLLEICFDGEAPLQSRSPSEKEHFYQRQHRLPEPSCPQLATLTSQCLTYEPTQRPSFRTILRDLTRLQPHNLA

IC50 [1, 2] | Compound | also measured
≤ 500 nM | CNc1ncc(C#Cc2ccc3nc(CC(F)(F)F)n(C)c3c2)c2cc(NC(=O)C3CC3)ncc12 [Example 774, N-(5-((1-methyl-2-(2,2,2-trifluoroethyl)-1H-benzo[d]imidazol-6-yl)ethynyl)-8-(methylamino)-2,7-naphthyridin-3-yl)cyclopropanecarboxamide] | Kd (TYK2 JH2; [3]): ≤ 100 nM
≤ 500 nM | CNc1ncc(-c2nc3cc(OC)ccc3o2)c2cc(NC(=O)[C@H]3C[C@@H]3F)ncc12 [Example 389, (1R,2S)-2-fluoro-N-(5-(5-methoxybenzo[d]oxazol-2-yl)-8-(methylamino)-2,7-naphthyridin-3-yl)cyclopropane-1-carboxamide] | Kd (TYK2 JH2; [4]): ≤ 100 nM
> 500 nM | CNc1ncc(-c2nc3cc(OC)ccc3o2)c2cc(Nc3ccc(F)cn3)ncc12 [Example 374, N^6-(5-fluoropyridin-2-y1)-4-(5-methoxybenzo[d]oxazol-2-yl)-N^1-methyl-2,7-naphthyridine-1,6-diamine] | Kd (TYK2 JH2; [4]): ≤ 100 nM
 | CNc1ncc(-c2cscn2)c2cc(NC(=O)C3CC3)ncc12 [Example 65, N-(8-(methylamino)-5-(thiazol-4-yl)-2,7-naphthyridin-3-yl)cyclopropanecarboxamide] | IC50 [1, 5]: > 500 nM; Kd (TYK2 JH2; [6]): ≤ 100 nM
≤ 500 nM | CNc1ncc(-c2nc3cc(OC4CN(C(=O)OC(C)(C)C)C4)ccc3o2)c2cc(NC(=O)C3CC3)ncc12 [Example 196, tert-butyl 3-((2-(6-(cyclopropanecarboxamido)-1-(methylamino)-2,7-naphthyridin-4-yl)benzo[d]oxazol-5-yl)oxy)azetidine-1-carboxylate] | Kd (TYK2 JH2; [4]): ≤ 100 nM
 | CNc1ncc(-c2cc(C)ns2)c2cc(NC(=O)C3CC3)ncc12 [Example 138, N-(8-(methylamino)-5-(3-methylisothiazol-5-yl)-2,7-naphthyridin-3-yl)cyclopropanecarboxamide] | IC50 [1, 5]: > 500 nM; Kd (TYK2 JH2; [6]): ≤ 100 nM
≤ 500 nM | CCn1c(C)nc2cc(C#Cc3cnc(NC)c4cnc(NC(=O)C5CC5)cc34)ccc21 [Example 762, N-(5-((1-ethyl-2-methyl-1H-benzo[d]imidazol-5-yl)ethynyl)-8-(methylamino)-2,7-naphthyridin-3-yl)cyclopropanecarboxamide] | Kd (TYK2 JH2; [3]): ≤ 100 nM
 | CNc1ncc(-c2ncccc2OC)c2cc(Nc3ccccn3)ncc12 [Example 91, 4-(3-methoxypyridin-2-yl)-N^1-methyl-N^6-(pyridin-2-yl)-2,7-naphthyridine-1,6-diamine] | IC50 [1, 5]: > 500 nM; Kd (TYK2 JH2; [6]): 100 to 1000 nM
≤ 500 nM | [2H]C([2H])([2H])n1c(C#Cc2cnc(NC)c3cnc(NC(=O)C4CC4)cc23)cnc1C [Example 902, N-(5-((2-methyl-1-(methyl-d3)-1H-imidazol-5-yl)ethynyl)-8-(methylamino)-2,7-naphthyridin-3-yl)cyclopropanecarboxamide] | Kd (TYK2 JH2; [3]): ≤ 100 nM
≤ 500 nM | CNc1ncc(C#Cc2ccc3c(c2)OC=CO3)c2cc(NC(=O)C3CC3)ncc12 [Example 895, N-(5-(benzo[b][1,4]dioxin-6-ylethynyl)-8-(methylamino)-2,7-naphthyridin-3-yl)cyclopropanecarboxamide] | Kd (TYK2 JH2; [3]): ≤ 100 nM
≤ 500 nM | CNc1ncc(C#Cc2ccc3c(c2)CC(=O)N3C)c2cc(NC(=O)C3CC3)ncc12 [Example 803, N-(5-((1-methyl-2-oxoindolin-5-yl)ethynyl)-8-(methylamino)-2,7-naphthyridin-3-yl)cyclopropanecarboxamide] | 
≤ 500 nM | CNc1ncc(-c2nc3cnc(C(F)F)cc3o2)c2cc(NC(=O)C3CC3)ncc12 [Example 461, N-(5-(6-(difluoromethyl)oxazolo[4,5-c]pyridin-2-yl)-8-(methylamino)-2,7-naphthyridin-3-yl)cyclopropanecarboxamide] | 
 | CNc1ncc(/C=C/c2ccccc2OC)c2cc(NC(=O)C3CC3)ncc12 [Example 174, (E)-N-(5-(2-methoxystyryl)-8-(methylamino)-2,7-naphthyridin-3-yl)cyclopropanecarboxamide] | IC50 [1, 5]: ≤ 500 nM
≤ 500 nM | CNc1ncc(-c2cc3ccc(N4CCO[C@@H](C)C4)cn3n2)c2cc(NC(=O)C3CC3)ncc12 [Example 797, (S)—N-(8-(methylamino)-5-(6-(2-methylmorpholino)pyrazolo[1,5-a]pyridin-2-yl)-2,7-naphthyridin-3-yl)cyclopropanecarboxamide] | 
≤ 500 nM | CNc1ncc(C#Cc2ccc(CN3CC(F)(F)C3)cn2)c2cc(NC(=O)C3CC3)ncc12 [Example 906, N-(5-((5-((3,3-difluoroazetidin-1-yl)methyl)pyridin-2-yl)ethynyl)-8-(methylamino)-2,7-naphthyridin-3-yl)cyclopropanecarboxamide] | 
≤ 500 nM | CCNc1ncc(-c2nc3cc(N4CC5CNCC(C4)O5)ccc3o2)c2cc(NC(=O)C3CC3)ncc12 [Example 466, N-(5-(5-(9-oxa-3,7-diazabicyclo[3.3.1]nonan-3-yl)benzo[d]oxazol-2-yl)-8-(ethylamino)-2,7-naphthyridin-3-yl)cyclopropanecarboxamide] | 
≤ 500 nM | CNc1ncc(-c2nc3cc(N4CCO[C@@H](C)C4)ccc3o2)c2cc(NC(=O)[C@H]3C[C@H]3C)nnc12 [Example 891, (1S,2R)-2-methyl-N-(8-(methylamino)-5-(5-((S)-2-methylmorpholino)benzo[d]oxazol-2-yl)pyrido[3,4-c]pyridazin-3-yl)cyclopropane-1-carboxamide] | 
 | CNc1ncc(C#Cc2nccc3cc(F)ccc23)c2cc(NC(=O)C3CC3)ncc12 [Example 1135, N-(5-((6-fluoroisoquinolin-1-yl)ethynyl)-8-(methylamino)-2,7-naphthyridin-3-yl)cyclopropanecarboxamide] | IC50 ([1]; IFNa-stimulated pSTAT5 (Tyr694/699), read-out: Cellular_THP1_IFNa-pSTATS_TYK2): ≤ 500 nM
≤ 500 nM | CNc1ncc(C#Cc2ccc(CN3CC(OC)C3)cn2)c2cc(NC(=O)C3CC3)ncc12 [Example 912, N-(5-((5-((3-methoxyazetidin-1-yl)methyl)pyridin-2-yl)ethynyl)-8-(methylamino)-2,7-naphthyridin-3-yl)cyclopropanecarboxamide] | 
≤ 500 nM | CNc1ncc(-c2nc3ccc(N4CCOCC4)cn3n2)c2cc(Nc3ccccn3)nnc12 [Example 892, N^8-methyl-5-(6-morpholino-[1,2,4]triazolo[1,5-a]pyridin-2-yl)-N^3-(pyridin-2-yl)pyrido[3,4-c]pyridazine-3,8-diamine] | 
≤ 500 nM | CNc1ncc(C#Cc2ccc(CN3CCO[C@@H](C)C3)cc2)c2cc(NC(=O)C3CC3)ncc12 [Example 814, (S)—N-(8-(methylamino)-5-((4-((2-methylmorpholino)methyl)phenyl)ethynyl)-2,7-naphthyridin-3-yl)cyclopropanecarboxamide] | 
